Here are results for 52 compounds from US9266834B2, “1, 4-disubstituted 3-cyano-pyridone derivatives and their use as positive allosteric modulators of MGLUR2-receptors” (JANSSEN PHARMACEUTICALS, INC., priority 2006, dated 2016).

Molecules are shown by their SMILES.

The target in one series is T1, human mGluR2 receptor (Homo sapiens, UniProt Q14416).
T1 construct: expressed in transfected cells; host or cells: CHO cells (membrane preparation)
In words: [35S]GTPγS binding assay (GTPγS-PAM): positive allosteric modulation in presence of glutamate at EC25, membranes from transfected CHO cells. Type of series: biochemical. The following applies: in presence of mGluR2 agonist glutamate at predetermined EC25 concentration, averages of duplicate values of 11-concentration response curves, read-out: GTPgS - hR2 PAM pEC50 (converted). The method in brief: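 Potentiation was read as filter-retained [35S]GTPγS (0.1 nM final, 30 min, 30° C.) after a 30 min, 30° C. preincubation of human mGluR2 CHO membranes (15 μg/well) with EC25 glutamate and 11 modulator concentrations spanning 0.3 nM-50 μM. The buffer was 50 mM HEPES pH 7.4, NaCl, MgCl2, 50 μM GDP and saponin. Cold 10 μM GTP defined nonspecific binding; data were fitted by a four-parameter logistic.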
On the technique in general: Binding of GTPγS marks nucleotide exchange on a G protein.

T1 sequence (Q14416 19-872): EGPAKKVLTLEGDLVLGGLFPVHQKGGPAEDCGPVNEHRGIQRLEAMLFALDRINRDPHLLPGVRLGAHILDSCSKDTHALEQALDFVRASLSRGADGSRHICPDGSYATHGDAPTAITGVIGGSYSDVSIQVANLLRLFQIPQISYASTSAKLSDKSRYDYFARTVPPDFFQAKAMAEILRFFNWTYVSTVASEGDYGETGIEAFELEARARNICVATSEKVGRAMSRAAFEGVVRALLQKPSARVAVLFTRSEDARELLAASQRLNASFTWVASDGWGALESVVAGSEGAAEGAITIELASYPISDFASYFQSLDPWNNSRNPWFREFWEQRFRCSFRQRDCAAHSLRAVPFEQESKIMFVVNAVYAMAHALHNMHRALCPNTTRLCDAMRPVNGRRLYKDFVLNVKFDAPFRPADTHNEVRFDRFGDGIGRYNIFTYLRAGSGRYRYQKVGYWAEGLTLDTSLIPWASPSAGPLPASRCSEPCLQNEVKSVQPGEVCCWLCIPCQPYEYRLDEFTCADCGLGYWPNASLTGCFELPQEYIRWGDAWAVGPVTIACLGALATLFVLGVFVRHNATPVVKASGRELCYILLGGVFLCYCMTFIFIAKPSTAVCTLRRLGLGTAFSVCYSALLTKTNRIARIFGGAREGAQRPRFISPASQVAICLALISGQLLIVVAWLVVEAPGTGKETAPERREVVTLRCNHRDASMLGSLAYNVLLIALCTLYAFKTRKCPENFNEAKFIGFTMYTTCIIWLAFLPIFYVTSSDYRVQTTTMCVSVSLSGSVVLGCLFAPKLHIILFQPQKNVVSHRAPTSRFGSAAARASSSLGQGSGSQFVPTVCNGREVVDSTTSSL

`CC(C)Cn1ccc(N2CCN(Cc3ccc(OC(F)(F)F)c(Cl)c3)CC2)c(C#N)c1=O` [2-010]: the melting point – broadly, the temperature, or range, at which the solid turns liquid – was determined as 112 °C. Moreover, the EC50 at human mGluR2 receptor is 1 µM.
The compound `CC(C)CCn1ccc(N2CCN(Cc3ccc(OC(F)(F)F)c(Cl)c3)CC2)c(C#N)c1=O` [2-022] had a melting point of 256 °C. Moreover, the EC50 on human mGluR2 receptor was 0.158 µM.
In turn, `CC(C)CCn1ccc(N2CCN(c3ncccc3C(F)(F)F)CC2)c(C#N)c1=O` [2-026] came in with a melting point of 135 °C. In addition, at human mGluR2 receptor, the EC50 is 0.2 µM.
Regarding `CC(C)CCn1ccc(N2CCN(c3nccc(C(F)(F)F)n3)CC2)c(C#N)c1=O` [2-029], the melting point turned out to be 155 °C. Also, at human mGluR2 receptor, the EC50 was 0.251 µM.
Regarding `CC(C)CCn1ccc(N2CCN(c3nc4ccccc4o3)CC2)c(C#N)c1=O` [2-035], the melting point was 288 °C. The EC50 at human mGluR2 receptor is 1 µM.
On to `CC(C)CCn1ccc(C(=O)N2CCN(c3ncccn3)CC2)c(C#N)c1=O` [2-037], for which the melting point was found to be 223 °C. For the same compound, the EC50 on human mGluR2 receptor is 1 µM.
Regarding `N#Cc1c(N2CCN(Cc3cc(F)cc(C(F)(F)F)c3)CC2)ccn(CC2CC2)c1=O` [2-038], the melting point worked out at 140 °C. For the same compound, on human mGluR2 receptor, the EC50 was 5.01 µM.
The matching figures for `N#Cc1c(N2CCN(Cc3ccc(OC(F)(F)F)c(Cl)c3)CC2)ccn(CC2CC2)c1=O` [2-039]: 125 °C and 0.794 µM.
The matching figures for `N#Cc1c(N2CCN(Cc3ccc(OCC4CC4)c(Cl)c3)CC2)ccn(CC2CC2)c1=O` [2-040]: 157 °C and 0.501 µM.
Consider `N#Cc1c(N2CCN(CCc3ccccc3)CC2)ccn(Cc2ccc(OC(F)(F)F)cc2)c1=O` [2-043], for which the melting point amounted to 110 °C. At human mGluR2 receptor, the EC50 was 0.251 µM.
The matching figures for `N#Cc1c(N2CCN(Cc3ccc(F)cc3)CC2)ccn(Cc2ccc(OC(F)(F)F)cc2)c1=O` [2-044]: 156 °C and 1.58 µM.
Taken in the same sequence, the figures for `N#Cc1c(N2CCN(CC(=O)c3ccccc3)CC2)ccn(Cc2ccc(OC(F)(F)F)cc2)c1=O` [2-046] were 92 °C and 3.16 µM.
Turning to `N#Cc1c(N2CCN(c3ncccc3C(F)(F)F)CC2)ccn(Cc2ccc(OC(F)(F)F)cc2)c1=O` [2-048], the melting point was determined as 258 °C. Besides, the EC50 at human mGluR2 receptor was 0.0794 µM.
For `N#Cc1c(N2CCN(Cc3ccc(F)c(F)c3)CC2)ccn(Cc2ccc(F)cc2)c1=O` [2-051], the melting point was determined as 239 °C. Besides, the EC50 on human mGluR2 receptor was 3.16 µM.
Consider `CC(C)CCn1ccc(NC2CCN(c3ccc(C(F)(F)F)cn3)CC2)c(C#N)c1=O` [3-004], for which the melting point came out at 188 °C. Also, the EC50 on human mGluR2 receptor is 0.251 µM.
The matching figures for `CC(C)CCn1ccc(N(C)C2CCN(Cc3cccc(C(F)(F)F)c3)CC2)c(C#N)c1=O` [3-006]: 131 °C and 2.51 µM.
The matching figures for `CC(C)CCn1ccc(OC2CCN(Cc3ccccc3)CC2)c(C#N)c1=O` [3-007]: 208 °C and 6.31 µM.
The matching figures for `CC(C)CCn1ccc(OCC2CCN(Cc3cccc(C(F)(F)F)c3)CC2)c(C#N)c1=O` [3-009]: 117 °C and 0.158 µM.
For the compound `N#Cc1c(NC2CCN(Cc3ccc(OC(F)(F)F)c(Cl)c3)CC2)ccn(CC2CC2)c1=O` [3-010], the melting point is 187 °C. Moreover, the EC50 at human mGluR2 receptor was 1.58 µM.
The matching figures for `CN(c1ccn(Cc2ccc(OC(F)(F)F)cc2)c(=O)c1C#N)C1CCN(Cc2ccccc2)CC1` [3-013]: 211 °C and 3.98 µM.
In the case of `CCCCn1ccc(N2CCC(c3ccnc(C)c3)CC2)c(C#N)c1=O` [4-003], the melting point turned out to be 132 °C. Besides, the EC50 at human mGluR2 receptor was 3.98 µM.
The matching figures for `CCCCn1ccc(N2CCC(Oc3cccnc3)CC2)c(C#N)c1=O` [4-004]: 188 °C and 3.16 µM.
The matching figures for `CC(C)CCn1ccc(N2CCC(C(=O)c3ccccc3)CC2)c(C#N)c1=O` [4-012]: 296 °C and 0.398 µM.
The compound `CC(C)CCn1ccc(N2CCC(c3cccc(C(F)(F)F)c3)CC2)c(C#N)c1=O` [4-016] had a melting point of 112 °C. At human mGluR2 receptor, the EC50 was 0.0501 µM.
The compound `CC(C)CCn1ccc(N2CCC(CCOc3ccc(F)cc3)CC2)c(C#N)c1=O` [4-019] had a melting point of 100 °C. For the same compound, the EC50 on human mGluR2 receptor is 0.0794 µM.
Compound `CC(C)CCn1ccc(N2CCC(N(C)Cc3ccc(F)cc3)CC2)c(C#N)c1=O` [4-027] registered a melting point of 113 °C. Further, at human mGluR2 receptor, the EC50 was 1.26 µM.
Taken in the same sequence, the figures for `CC(C)CCn1ccc(N2CCC(N(C)Cc3ccc(C(F)(F)F)cc3)CC2)c(C#N)c1=O` [4-029] were 91 °C and 0.126 µM.
The matching figures for `CC(C)CCn1ccc(N2CCC(N(C)c3cccc(C(F)(F)F)c3)CC2)c(C#N)c1=O` [4-031]: 141 °C and 0.0631 µM.
In turn, `CC(C)CCn1ccc(N2CCC(N3CCc4ccccc4C3)CC2)c(C#N)c1=O` [4-034] displayed a melting point of 253 °C. Besides, the EC50 at human mGluR2 receptor was 3.16 µM.
As for `CC(C)CCn1ccc(N2CCC(n3ccc4cc(F)ccc43)CC2)c(C#N)c1=O` [4-037], the melting point was 78 °C. The EC50 on human mGluR2 receptor was 0.126 µM.
The matching figures for `CC(C)CCn1ccc(N2CCC(c3nc4ccccc4o3)CC2)c(C#N)c1=O` [4-038]: 214 °C and 0.398 µM.
The matching figures for `CC(C)CCn1ccc(N2CCC(c3coc4cc(F)ccc34)CC2)c(C#N)c1=O` [4-039]: 123 °C and 0.0398 µM.
Compound `CC(C)CCn1ccc(N2CCC(c3noc(CC(C)(C)C)n3)CC2)c(C#N)c1=O` [4-040] returned a melting point of 113 °C. The EC50 at human mGluR2 receptor is 0.398 µM.
In turn, `CC(C)CCn1ccc(N2CCC(Nc3ccccc3)C(C)C2)c(C#N)c1=O` (centres unmarked) [4-043] came in with a melting point of 138 °C. Further, the EC50 on human mGluR2 receptor is 0.501 µM.
The matching figures for `CN(Cc1ccccc1)C1CCN(c2ccn(Cc3ccc(OC(F)(F)F)cc3)c(=O)c2C#N)CC1` [4-049]: 138 °C and 0.2 µM.
Taken in the same sequence, the figures for `CN(Cc1cccc(F)c1)C1CCN(c2ccn(Cc3ccc(F)cc3)c(=O)c2C#N)CC1` [4-057] were 242 °C and 1 µM.
Turning to `N#Cc1c(N2CCC(N(Cc3cccc(F)c3)C3CC3)CC2)ccn(Cc2ccc(F)cc2)c1=O` [4-059], the melting point turned out to be 157 °C. Also, the EC50 on human mGluR2 receptor was 0.251 µM.
The matching figures for `N#Cc1c(N2CCC(N(Cc3cccc(C(F)(F)F)c3)C3CC3)CC2)ccn(Cc2ccc(F)cc2)c1=O` [4-060]: 96 °C and 0.0501 µM.
The matching figures for `N#Cc1c(N2CCC(N3Cc4ccc(F)cc4C3)CC2)ccn(Cc2ccc(F)cc2)c1=O` [4-061]: 175 °C and 1.58 µM.
Taken in the same sequence, the figures for `N#Cc1c(N2CCC(c3ccccc3)CC2)ccn(Cc2ccc(OC(F)(F)F)cc2)c1=O` [4-062] were 139 °C and 0.0398 µM.
As to `CN(Cc1ccccc1)C1CCN(c2ccn(CCOc3ccccc3)c(=O)c2C#N)CC1` [4-064], the melting point came out at 159 °C. For the same compound, on human mGluR2 receptor, the EC50 was 0.126 µM.
Taken in the same sequence, the figures for `CCCCn1ccc(-c2ccc3c(c2)nc(C)n3Cc2ccccn2)c(C#N)c1=O` [5-002] were 164.7 °C and 6.31 µM.
The matching figures for `CC(C)CCn1ccc(N2CCC(N(C)Cc3cccc(F)c3)C2)c(C#N)c1=O` (centres unmarked) [5-006]: 100 °C and 3.98 µM.
`CC(C)CCn1ccc(N2CC(OCc3ccc(OC(F)(F)F)cc3)C2)c(C#N)c1=O` [5-008] yielded a melting point of 102 °C. Also, at human mGluR2 receptor, the EC50 is 0.251 µM.
Regarding `CC(C)CCn1ccc(-c2ccc3c(ccn3Cc3ccncc3)c2)c(C#N)c1=O` [5-020], the melting point turned out to be 232 °C. Besides, on human mGluR2 receptor, the EC50 is 0.0251 µM.
The matching figures for `CC(C)CCn1ccc(N2CCCc3ccccc32)c(C#N)c1=O` [5-031]: 134 °C and 6.31 µM.
`COc1ccc2c(c1)C1CCCN(c3ccn(CCC(C)C)c(=O)c3C#N)C1CC2` (centres unmarked) [5-035] showed a melting point of 169 °C. For the same compound, the EC50 at human mGluR2 receptor was 1.58 µM.
As for `CC(C)CCn1ccc(N2CCC3Oc4ccccc4OC3C2)c(C#N)c1=O` (centres unmarked) [5-037], the melting point came out at 217 °C. Moreover, on human mGluR2 receptor, the EC50 was 0.398 µM.
Regarding `CC(C)CCn1ccc(N2CCc3c([nH]c4ccccc34)C2)c(C#N)c1=O` [5-039], the melting point came out at 276 °C. Moreover, the EC50 at human mGluR2 receptor is 0.0794 µM.
Taken in the same sequence, the figures for `CC(C)CCn1ccc(N2CCc3c(n(C)c4ccc(F)cc34)C2)c(C#N)c1=O` [5-040] were 111 °C and 0.316 µM.
Regarding `CC(C)CCn1ccc(N2CCc3c(oc4ccccc34)C2)c(C#N)c1=O` [5-041], the melting point was 130 °C. Moreover, the EC50 on human mGluR2 receptor is 0.0501 µM.
`N#Cc1c(-c2ccc3[nH]ccc3c2)ccn(Cc2ccc(OC(F)(F)F)cc2)c1=O` [5-051] showed a melting point of 166 °C. For the same compound, the EC50 on human mGluR2 receptor was 0.251 µM.
